Assay results from patent US7514438B2, “Melanin concentrating hormone receptor antagonist” (Amgen, Inc., priority 2003, dated 2009).

What was measured:
[1] = target: T1, rat MCH 1 receptor (rMCH1R) (Rattus norvegicus, UniProt P97639); assay: 125I-MCH ligand binding assay, rMCH; settings: HEK 293 membranes, 0.2 nM 125I native-MCH; 100 μM or less list; read-out: IC50 in the rMCH binding assay
T1 construct: expressed in transfected cells; host or cells: HEK 293 (membranes)
Experimental: (§1) Human embryonic kidney cells (293 total) expressing either human, rat, or mouse MCH receptor were harvested from 150 mm culture dishes using PBS. Spinning at 1500 rpm for 2 minutes initially pelleted cells. The resulting pellet was then homogenized in 15 mL ice cold sucrose buffer (25 mM HEPES, 0.3 M sucrose, pH 7.4) with a motorized, glass fitted, Teflon® homogenizer. The homogenate was centrifuged at 48,000×g at 4° C. for 10 minutes, resuspended in 15 mL assay buffer (25 mM HEPES, 10 mM mgCl2, 0.2% BSA, 0.1 mg/mL STI, 0.1 mg/mL Pefabloc®, 1 μM Phosphoramidon, pH 7.4) with a Tissue-Tearor® (Biospec Products) and centrifuged again at 48,000×g for 10 minutes. The pellet was homogenized for a third time in 15 mL assay buffer using the Tissue-Tearor® and again centrifuged at 48,000×g for 10 minutes. The resulting pellet was resuspended in assay buffer at a wet weight concentration of 10-20 mg/mL.
(§2) Binding assays were determined as described below using mouse, rat or human MCH 1 receptors (mMCH1R, rMCH1R, and hMCH1R, respectively) expressed in HEK 293; IC50 values were calculated.
(§3) Binding assays were performed in 96-well U-bottom plates. Membranes (100 μg tissue) were incubated at 30° C. for 90 minutes in assay buffer with various peptides in the presence of 0.2 nM ^125I native-MCH (Perkin-Elmer Life Sciences, Boston, Mass.) in 100 μL total volume. Non-specific binding was assessed in the presence of 1 μM cold native-MCH. The reaction was terminated by rapid filtration through Unfilter-96 GF/C glass fiber filter plates (FilterMate® 196 Harvester, Packard Instrument Co., Meriden, Conn.) pre-soaked in PBS/0.5% BSA, followed by three washes with 300 μL ice-cold water. Bound radioactivity was determined using a TopCount® microplate scintillation and luminescence counter (Packard Instrument Co., Meriden, Conn.). Nonlinear regression analyses of drug concentration curves were performed using GraphPad Prism® (GraphPad Software, Inc., San Diego, Calif.).

[2] = target: T2, human MCH 1 receptor (hMCH1R) (Homo sapiens, UniProt Q99705); assay: 125I-MCH ligand binding assay, hMCH; settings: HEK 293 membranes, 0.2 nM 125I native-MCH; 100 μM or less list; read-out: IC50 in the hMCH binding assay
T2 construct: expressed in transfected cells; host or cells: HEK 293 (membranes)
T2 sequence (Q99705 whole entry): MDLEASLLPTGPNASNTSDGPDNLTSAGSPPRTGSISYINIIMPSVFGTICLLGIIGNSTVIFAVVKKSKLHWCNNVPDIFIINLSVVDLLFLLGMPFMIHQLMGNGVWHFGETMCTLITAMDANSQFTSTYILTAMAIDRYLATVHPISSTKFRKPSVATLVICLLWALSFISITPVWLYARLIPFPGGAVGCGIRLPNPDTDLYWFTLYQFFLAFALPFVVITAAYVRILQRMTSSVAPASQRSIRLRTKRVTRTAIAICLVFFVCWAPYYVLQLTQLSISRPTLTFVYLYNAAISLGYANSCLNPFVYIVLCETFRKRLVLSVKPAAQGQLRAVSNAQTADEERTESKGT
Experimental: as §1, §2, §3

T1 sequence (P97639 whole entry): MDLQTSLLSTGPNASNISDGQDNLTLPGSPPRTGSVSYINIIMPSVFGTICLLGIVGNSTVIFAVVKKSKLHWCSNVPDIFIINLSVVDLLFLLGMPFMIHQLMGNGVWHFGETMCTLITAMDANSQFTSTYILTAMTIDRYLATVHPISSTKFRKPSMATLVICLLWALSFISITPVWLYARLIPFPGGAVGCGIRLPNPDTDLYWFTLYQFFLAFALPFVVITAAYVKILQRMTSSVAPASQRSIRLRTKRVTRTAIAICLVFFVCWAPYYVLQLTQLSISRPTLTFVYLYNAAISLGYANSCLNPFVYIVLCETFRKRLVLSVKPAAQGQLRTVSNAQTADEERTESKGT

Row | Structure (SMILES) | IC50 [1] [µM] | IC50 [2] [µM]
1 | Cc1cccc(C)c1-n1nnnc1[C@H](c1ccc(C(F)(F)F)cc1)N1CCN(C/C=C/c2ccccc2)CC1 (racemic) [Compound 63, 1-[[1-(2,6-dimethylphenyl)-1H-tetrazol-5-yl]-(4-trifluoromethylphenyl)methyl]-4-(3-phenylallyl)piperazine] | ≤ 100 | ≤ 100
2 | Cc1cccc(C)c1-n1nnnc1[C@H](c1ccc(/C=C/c2ccccc2)cc1)N1CCN(C/C=C/c2ccccc2)CC1 (racemic) [Compound 52, 1-[[1-(2,6-dimethylphenyl)-1H-tetrazol-5-yl]-(4-styrylphenyl)methyl]-4-(3-phenylallyl)piperazirie] | ≤ 100 | ≤ 100
3 | COC(=O)C(Cc1ccccc1)n1nnnc1[C@H](c1ccccc1)N1CCN(C/C=C/c2ccccc2)CC1 (stereo in doubt) [Compound 26, 3-phenyl-2-(5-{phenyl-[4-(3-phenylallyl)piperazin-1-yl]methyl}tetrazol-1-yl)propionic acid methyl ester] | ≤ 100 | ≤ 100
4 | O=C1CCCN1CCCn1nnnc1[C@H](c1ccccc1)N1CCN(C/C=C/c2ccccc2)CC1 (racemic) [Compound 36, 1-[3-(5-{phenyl-[4-(3-phenylallyl)piperazin-1-yl]methyl}tetrazol-1-yl)propyl]pyrrolidin-2-one] | ≤ 100 | ≤ 100
5 | C(=C\c1ccccc1)/CN1CCN([C@@H](c2ccccc2)c2nnnn2-c2cccc3c2CCCC3)CC1 (racemic) [Compound 38, 1-(3-phenylallyl)-4-{phenyl-[1-(5,6,7,8-tetrahydronaphthalen-1-yl)-1H-tetrazol-5-yl]methyl}piperazine] | ≤ 100 | ≤ 100
6 | FC(F)(F)c1cccc([C@@H](c2nnnn2-c2c(Cl)cccc2Cl)N2CCN(C/C=C/c3ccccc3)CC2)c1 (racemic) [Compound 164, 1-[[1-(2,6-dichlorophenyl)-1H-tetrazol-5-yl]-(3-trifluoromethylphenyl)methyl]-4-(3-phenylallyl)piperazine] | ≤ 100 | ≤ 100
7 | CC(C)(C)CC(C)(C)n1nnnc1[C@H](c1ccccc1)N1CCN(C/C=C/c2ccccc2)CC1 (racemic) [Compound 22, 1-(3-phenylallyl)-4-{phenyl-[1-(1,1,3,3-tetramethylbutyl)-1H-tetrazol-5-yl]methyl}piperazine] | ≤ 100 | ≤ 100
8 | CCCCn1nnnc1[C@H](c1ccccc1)N1CCN(C/C=C/c2ccccc2)CC1 (racemic) [Compound 17, 1-[(1-butyl-1H-tetrazol-5-yl)phenylmethyl]-4-(3-phenylallyl)piperazine] | – | ≤ 100
9 | Cc1cccc(C)c1-n1nnnc1[C@H](c1cccc(Oc2ccc(Cl)c(Cl)c2)c1)N1CCN(C/C=C/c2ccccc2)CC1 (racemic) [Compound 72, 1-{[3-(3,4-dichlorophenoxy)phenyl]-[1-(2,6-dimethylphenyl)-1H-tetrazol-5-yl]methyl}-4-(3-phenylallyl) piperazine] | ≤ 100 | ≤ 100
10 | C(=C\c1ccccc1)/CN1CCN([C@@H](c2ccccc2)c2nnnn2CCCN2CCOCC2)CC1 (racemic) [Compound 42] | – | ≤ 100
11 | Clc1ccc(Cn2nnnc2[C@H](c2ccccc2)N2CCN(C/C=C/c3ccccc3)CC2)cc1Cl (racemic) [Compound 30, 1-{[1-(3,4-dichlorobenzyl)-1H-tetrazol-5-yl]phenylmethyl}-4-(3-phenylallyl)piperazine] | ≤ 100 | ≤ 100
12 | CCOC(=O)Cn1nnnc1[C@H](c1ccccc1)N1CCN(C/C=C/c2ccccc2)CC1 (racemic) [Compound 21] | ≤ 100 | ≤ 100
13 | Cc1cccc(C)c1-n1nnnc1[C@H](c1cccnc1)N1CCN(C/C=C/c2ccccc2)CC1 (racemic) [Compound 74, 1-{[1-(2,6-dimethylphenyl)-1H-tetrazol-5-yl]pyridin-3-ylmethyl}-4-(3-phenylallyl)piperazine] | ≤ 100 | ≤ 100
14 | C(=C\c1ccccc1)/CN1CCN([C@@H](c2ccccc2)c2nnnn2CCc2c[nH]c3ccccc23)CC1 (racemic) [Compound 29, 3-[2-(5-{phenyl-[4-(3-phenylallyl)piperazin-1-yl]methyl}tetrazol-1-yl)ethyl]-1H-indole] | ≤ 100 | ≤ 100
15 | CC(C)n1nnnc1[C@H](c1ccccc1)N1CCN(C/C=C/c2ccccc2)CC1 (racemic) [Compound 19, 1-[(1-isopropyl-1H-tetrazol-5-yl)phenylmethyl]-4-(3-phenylallyl)piperazine] | ≤ 100 | ≤ 100
16 | C(=C\c1ccccc1)/CN1CCN([C@@H](c2ccccc2)c2nnnn2CC2CCCO2)CC1 (stereo in doubt) [Compound 33, 1-(3-phenylallyl)-4-{phenyl-[1-(tetrahydrofuran-2-ylmethyl)-1H-tetrazol-5-yl]methyl}piperazine] | ≤ 100 | ≤ 100
17 | C(=C\c1ccccc1)/CN1CCN([C@@H](c2ccccc2)c2nnnn2Cc2ccccc2)CC1 (racemic) [Compound 15, 1-[(1-benzyl-1H-tetrazol-5-yl)phenylmethyl]-4-(3-phenylallyl)piperazine] | ≤ 100 | ≤ 100
18 | Cc1cccc(C)c1-n1nnnc1[C@H](c1ccc(-c2cccc(C(F)(F)F)c2)o1)N1CCN(C/C=C/c2ccccc2)CC1 (racemic) [Compound 68, 1-{[1-(2,6-dimethylphenyl)-1H-tetrazol-5-yl]-[5-(3-trifluoromethylphenyl)furan-2-yl]methyl}-4-(3-phenylallyl)piperazine] | ≤ 100 | ≤ 100
19 | COc1ccccc1[C@@H](c1nnnn1-c1c(C)cccc1C)N1CCN(C/C=C/c2ccccc2)CC1 (racemic) [Compound 67, 1-[[1-(2,6-dimethylphenyl)-1H-tetrazol-5-yl]-(2-methoxyphenyl)methyl]-4-(3-phenylallyl)piperazine] | – | ≤ 100
20 | CC(C)(C)n1nnnc1[C@H](c1ccccc1)N1CCN(C/C=C/c2ccccc2)CC1 (racemic) [Compound 14, 1-[(1-tert-butyl-1H-tetrazol-s-yl)phenylmethyl]-4-(3-phenylallyl)piperazine] | ≤ 100 | ≤ 100
21 | Clc1ccc(CCn2nnnc2[C@H](c2ccccc2)N2CCN(C/C=C/c3ccccc3)CC2)cc1 (racemic) [Compound 39, 1-({1-[2-(4-chlorophenyl)ethyl]-1H-tetrazol-5-yl}phenylmethyl)-4-(3-phenylallyl)piperazine] | ≤ 100 | ≤ 100
22 | Cc1ccc(Oc2cccc([C@@H](c3nnnn3-c3c(C)cccc3C)N3CCN(C/C=C/c4ccccc4)CC3)c2)cc1 (racemic) [Compound 73, 1-[[1-(2,6-dimethylphenyl)-1H-tetrazol-5-yl]-(3-p-tolyloxyphenyl)methyl]-4-(3-phenylallyl)piperazine] | ≤ 100 | ≤ 100
23 | Cc1cccc([C@@H](c2nnnn2-c2c(C)cccc2C)N2CCN(C/C=C/c3ccccc3)CC2)n1 (racemic) [Compound 71, 1-[[1-(2,6-dimethylphenyl)-1H-tetrazol-5-yl]-(6-methylpyridin-2-yl)methyl]-4-(3-phenylallyl)piperazine] | ≤ 100 | ≤ 100
24 | Cc1cccc(C)c1-n1nnnc1[C@H](c1cccc2ccccc12)N1CCN(C/C=C/c2ccccc2)CC1 (racemic) [Compound 46, 1-{[1-(2,6-dimethyiphenyl)-1H-tetrazol-5-yl]naphthalen-1-ylmethyl}-4-(3-phenylallyl)piperazine] | ≤ 100 | ≤ 100
25 | Cc1cccc(C)c1-n1nnnc1[C@H](c1ccccc1OCc1ccccc1)N1CCN(C/C=C/c2ccccc2)CC1 (racemic) [Compound 66, 1-{(2-benzyloxyphenyl)-[1-(2,6-dimethylphenyl)-1H-tetrazol-5-yl]methyl}-4-(3-phenylallyl)piperazine] | – | ≤ 100
26 | Cc1cccc(C)c1-n1nnnc1C1(N2CCN(C/C=C/c3ccccc3)CC2)CCN(Cc2ccccc2)CC1 [Compound 91, 1-{1-benzyl-4-[1-(2,6-dimethylphenyl)-1H-tetrazol-5-yl]piperidin-4-yl}-4-(3-phenylallyl)piperazine] | – | ≤ 100
27 | COC(=O)Cn1nnnc1[C@H](c1ccccc1)N1CCN(C/C=C/c2ccccc2)CC1 (racemic) [Compound 16, (5-{phenyl-[4-(3-phenylallyl)piperazin-1-yl]methyl}tetrazol-1-yl)acetic acid methyl ester] | – | ≤ 100
